Results published in patent US20110166059A1, “MEANS AND METHODS FOR EVALUATING A THERAPY WITH A P38 MAP KINASE INHIBITOR” (priority 2008, published 2011).

Assays:
[1] = test system: TNF, IL-6 or IL-10; conditions: human volunteers, control group increased after about 2-4 hours; oral inhibitor; cited from earlier work
[2] = test system: LPS-stimulated human monocytes; assay: Microarray gene expression profile of long-term LPS-stimulated monocytes in the presence of kinase inhibitors; format: cell-based; conditions: for late-stage LPS-induced gene expression change (principal component analysis, FIG. 4): long-term (16 hours) LPS-treated monocytes, 100 ng/ml LPS, inhibitor 10 μM
Protocol: (§1) Monocytes were isolated from pooled human buffy coats by Ficoll-Paque and subsequent Percoll (Pharmacia, Freiburg, Germany) density-gradient centrifugation to greater than 90% purity. Monocytes were cultured (1×10^6 cells/nil) in hydrophobic Teflon bags (Hereus, Hanau, Germany) in McCoy's 5a medium (Biochrom, Berlin, Germany) supplemented with 15% FCS, 2 mM L-glutamine, 200 IU penicillin, 100 μg/ml streptomycin and 1× NEAA (all from Biochrom, Berlin, Germany) and allowed to rest for 18 h prior to stimulation. Monocytes were exposed for 4 and 16 hours to 100 ng/ml LPS in the absence or presence of 10 μM PD98059, 10 μM GF109203X or 10 μm SB202190, respectively, or were left untreated
Total cellular RNA was isolated from 3 independent experiments with untreated and LPS-stimulated human monocytes in the absence or presence of pharmacological kinase inhibitors (RNeasy kit; Qiagen, Hilden, Germany). RNA preparation, samples preparation and hybridization to Affymetrix Human Genome 133 A Gene Chip arrays were performed according to the manufacturer's instructions (Affymetrix, Santa Clara, Calif.).
Ten micrograms of fragmented cRNA was, together with control cRNAs and grid alignment oligonucleotides, hybridized for 16 hours under constant rotation at 45° C. to Affymetrix Human Genome 133 A Gene Chip arrays (Affymetrix). Arrays were washed and stained using the Gene Chip Fluidics Station 400 (Affymetrix). Fluorescent signals were detected by the HP G2500A Gene Array Scanner (Affymetrix).
Data were processed by MicroArray Suite (MAS) Software 5.0 (Affymetrix). Signals were scaled to a target intensity of 100 and log transformed. The algorithm applied in the MAS 5.0 software assigned individual average background values to each cell intensity and subtracted it from single raw cell intensities Single raw values were calculated for each probe set (i.e., transcript from the median of discrimination values and their significance was assessed by using a one-sided Wilcoxon rank test).
While the MAS 5.0 software only allows comparison of 2 individuals data sets, we further studied the Affymetrix intensity files with the Expressionist Suite software package (GeneData, Basel, Switzerland) for a more sophisticated statistical analysis. […] The software package includes the Expressionist Refiner v3.0.4 which permits a global chip quality control with detection and masking of outliers and array defects, fluorescence gradient correction, and variance regularization. For final identification of significant gene expression difference we used Expressionist Analyst v4.0.5. First, data were normalized to a logarithmic mean of 180 in all experiments. […] Finally, n-fold changes were determined and screened for their significance by applying a t test. […]

[3] = test system: promoter regions of LPS-regulated proinflammatory genes (VCAM, IL8, DUSP1, TNF, MYC) in monocytes; assay: Chromatin immunoprecipitation (ChIP) of histone acetylation and methylation at promoters of pro-inflammatory genes in LPS-treated monocytes; format: cell-based, human; conditions: long-term (16 h) LPS treatment, ongoing inhibition of p38 MAP kinase; FIGS. 8 and 10
Protocol: as §1
After stimulation, monocytes were formalin-fixed, washed, lysed, and sonicated. DNA-protein complexes were immunoprecipitated with polyclonal histone-antibodies against H3K4 (abcam, Cambridge, UK), H3K79 and AcH4 (both upstate, Lake Placid, N.Y.). […] PCR products were processed by using the QuantiTect SYBR Green PCR kit to perform quantitative RT-PCRs employing the ABI PRISM 7900 (Applied Biosystems).

Row | Compound | increase in cytokines such as TNF, IL-6 or IL-10 after LPS administration [1] | late-stage LPS-induced gene expression change (principal component analysis, FIG. 4) [2] | down-regulation of inflammatory response genes in the late stage of LPS-signaling ([2]; human monocytes, 16 hours 100 ng/ml LPS, 10 μm SB202190) | acetylation of H4 (AcH4) at pro-inflammatory genes [3]
1 | Cc1ccc(-n2nc(C(C)(C)C)cc2NC(=O)Nc2ccc(OCCN3CCOCC3)c3ccccc23)cc1 [BIRB 796 BS, 1-(5-tert-butyl-2-p-tolyl-2H-pyrazol-3-yl)-3-[4-(2-morpholin-4-yl-ethoxy)-naphthalen-1-yl]-urea] | did not show a significant increase in these cytokines |  |  | 
2 | CN(C)CCCn1cc(C2=C(c3c[nH]c4ccccc34)C(=O)NC2=O)c2ccccc21 [GF109203X] |  | did not significantly change gene expression |  | 
3 | COc1cccc(-c2cc(=O)c3ccccc3o2)c1N [PD98059] |  | did not significantly change gene expression |  | 
4 | Oc1ccc(-c2nc(-c3ccncc3)c(-c3ccc(F)cc3)[nH]2)cc1 [SB202190, 4-(4-fluorophenyl)-2-2(4-hydroxyphenyl)-5-(4-pyridyl)-imidazole] |  | changed significantly | reversed the down-regulation of inflammatory response genes | sustained high acetylation of H4 (AcH4)
